Counter-ions that a name gives are not always drawn.

Data set [1] has as its system 5-HT2C receptors. To be noted: literature; cited from earlier work.
In data set [2] the target is T1, 5-HT2C receptors (Sus scrofa, UniProt K7GSR7).
T1 construct: pig cerebral plexus; from tissue; host or cells: pig cerebral plexus (own knowledge: choroid plexus)
T1 sequence (K7GSR7 1-457): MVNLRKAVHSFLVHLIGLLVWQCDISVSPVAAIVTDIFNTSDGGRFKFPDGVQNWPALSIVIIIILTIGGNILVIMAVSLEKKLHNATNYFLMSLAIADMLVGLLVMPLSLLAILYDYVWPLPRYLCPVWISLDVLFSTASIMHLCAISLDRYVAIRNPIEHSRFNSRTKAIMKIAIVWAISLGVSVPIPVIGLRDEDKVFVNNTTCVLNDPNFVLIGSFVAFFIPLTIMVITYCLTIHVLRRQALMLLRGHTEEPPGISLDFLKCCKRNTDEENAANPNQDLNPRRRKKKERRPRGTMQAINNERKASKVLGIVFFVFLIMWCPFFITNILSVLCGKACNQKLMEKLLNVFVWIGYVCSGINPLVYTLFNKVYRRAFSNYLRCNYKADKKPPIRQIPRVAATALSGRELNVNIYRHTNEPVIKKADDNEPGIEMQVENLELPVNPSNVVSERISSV
Nature of the data set: biochemical. Format: binding, pig. As for the experimental part:
(§1) Measurement of the in vitro affinity for the 5-HT2C and 5-HT2A receptors
(§2) The procedures described for the studies of the binding to the 5-HT2A and 5-HT2C receptors are exactly those described by H. Canton et al. (Eur. J. Pharmacol., 191, 93, 1990) and M. J. Millan et al. (J. Pharmacol. Exp. Ther., 262, 451-463, 1992). For 5-HT2A : rat frontal cortex/[^3 H]-ketanserin (1.0 nM). For 5-HT2C : pig […] plexus/[^3 H]-mesulergine (1.0 nM). The 50% inhibitory doses (ID50) are determined by regression analysis and the pKi values are calculated as follows: [formula] [L]=concentration of the Kd-Kd=dissociation constant Results

Data set [3] addresses T2, 5-HT2A receptors (Rattus norvegicus, UniProt P14842).
T2 construct: rat frontal cortex; from tissue; host or cells: rat frontal cortex
The data set is described as follows: In vitro affinity for the 5-HT2A receptors, rat frontal cortex/[3H]-ketanserin (1.0 nM). The following applies: for Ki: rat frontal cortex, [3H]-ketanserin 1.0 nM, average of two to four determinations. It is filed as binding. As for the experimental part: as §1, §2

Data set [4] relates to 5-HT2A receptors. To be noted: literature; cited from earlier work.
Data set [5] relates to patients. The following applies: clinical results in patients, literature; cited from earlier work.
Data set [6] relates to 5-HT2C receptors. The data set is described as follows: biochemical. It is filed as binding, pig. To be noted: 5-HT2A Ki (rat frontal cortex) over 5-HT2C Ki (pig cerebral plexus). The procedure:
as §1, §2

[7] abbreviates: 5-HT2C Ki (nM), pig cerebral plexus, [3H]-mesulergine 1.0 nM, average of two to four determinations.

T2 sequence (P14842 whole entry): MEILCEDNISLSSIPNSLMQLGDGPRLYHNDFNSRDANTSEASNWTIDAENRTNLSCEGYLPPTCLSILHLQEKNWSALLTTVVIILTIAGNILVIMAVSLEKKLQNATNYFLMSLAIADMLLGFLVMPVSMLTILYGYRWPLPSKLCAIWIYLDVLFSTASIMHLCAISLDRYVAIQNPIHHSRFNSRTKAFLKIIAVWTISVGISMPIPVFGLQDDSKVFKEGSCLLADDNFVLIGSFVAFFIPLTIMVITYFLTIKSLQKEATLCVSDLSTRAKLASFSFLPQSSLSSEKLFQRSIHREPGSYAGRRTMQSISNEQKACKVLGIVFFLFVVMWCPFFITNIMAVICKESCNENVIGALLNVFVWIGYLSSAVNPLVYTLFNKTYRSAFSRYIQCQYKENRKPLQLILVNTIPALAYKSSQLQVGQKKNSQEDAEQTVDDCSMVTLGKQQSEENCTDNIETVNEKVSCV

Consider `Cn1ccc2cc(NC(=O)Nc3cccnc3)ccc21` [SB 200,646, reference compound], for which the “action at 5-HT2C receptors” value in data set [1] was “selective 5-HT2C antagonist”. For the same compound, the “affinity for the 5-HT2C receptors” value in data set [2] is reported as “modest affinity”. In addition, the Ki is 204 nM in data set [2] (setting [7]); roughly 200 nM in data set [2] (affinity for the 5-HT2C receptors, of the order of); 1320 nM in data set [3]. In data set [3], the “affinity for the 5-HT2A sites/receptors” value is given as “weak affinity”.
For the compound `Clc1cccc(N2CCNCC2)c1` [mCPP], the “action at 5-HT2C receptors” value in data set [1] is 5-HT2C agonist. In addition, the “action at 5-HT2A receptors” value in data set [4] is reported as 5-HT2A antagonist. Moreover, in data set [5], the “anxiogenic properties and exacerbation of psychiatric states” value is “pronounced anxiogenic properties and which exacerbates depressive, aggressive and psychotic states in patients”.
For the compound `COc1cccc([C@H](O)C2CCN(CCc3ccc(F)cc3)CC2)c1OC` [MDL 100,907, reference compound], in data set [4], the “action at 5-HT2A receptors” value is listed as “selective 5-HT2A antagonist”. For the same compound, the “affinity for the 5-HT2A sites/receptors” value in data set [3] is listed as “very strong affinity”.
Turning to `Clc1ccc2c(c1)[C@H]1CN(Cc3ccccc3)C[C@H]1CO2` (relative stereo) [Example 24, cis-2-Benzyl-8-chloro-1,3,3a,4,9b-pentahydro-(1)-benzopyrano[3,4-c]pyrrolehydrochloride], the Ki worked out at 38 nM in data set [2] (setting [7]) and 107 nM in data set [3]. Besides, the “5-HT2A /5-HT2C affinity ratio” value in data set [6] is given as 2.8.
With `COc1cccc2c1[C@@H]1CNC[C@@H]1CO2.Cl` (relative stereo) [Example 16, cis-9-Methoxy-1,3,3a,4,9b-pentahydro-(1)-benzopyrano[3,4-c]pyrrole hydrochloride], the inhibitory constant (Ki) in data set [2] (setting [7]) was determined as 263 nM; in data set [3], 3310 nM. In addition, the “5-HT2A /5-HT2C affinity ratio” value in data set [6] was 12.6.
On to `COc1cccc2c1[C@H]1CN(Cc3ccccc3)C[C@H]1CO2` (relative stereo) [Example 15, cis-2-Benzyl-9-methoxy-1,3,3a,4,9b-pentahydro-(1)-benzopyrano[3,4-c]pyrrolehydrochloride], for which the Ki in data set [2] (setting [7]) was 36.3 nM; in data set [3] it was 389 nM. In addition, in data set [6], the “5-HT2A /5-HT2C affinity ratio” value was determined as 10.7.
The corresponding values for `COc1ccc2c(c1)[C@H]1CNC[C@@H]1CO2.Cl` (relative stereo) [Example 10, trans-8-Methoxy-1,3,3a,4,9b-pentahydro-(1)-benzopyrano[3,4-c]pyrrole hydrochloride] are 2190 nM, greater than 10000 nM and greater than 4.8.

As a reminder, the Ki is a measure of affinity in units of concentration, obtained from inhibition or displacement. Read a low Ki as higher affinity.
